This test has as its target muscle nicotinic acetylcholine receptor (Mus musculus). In words: The compound was tested for inhibitory potency against Nicotinic acetylcholine receptor in mouse muscle.

This note sets out measurements from BindingDB's records for doi:10.1021/jm9806300 (Massachusetts General Hospital, 1999).

pIC50: −log10 of the molar value.

Turning to `CCCCCC1(CCO)N=N1` [2-(3-Pentyl-3H-diazirin-3-yl)-ethanol], the negative logarithm of the IC50 (pIC50) was 4.48.

By pIC50 is commonly meant −log10 of the IC50, conventionally taken in molar units. High values mean a low IC50, low ones a high IC50.
